Target: human TPH1 (Homo sapiens (Human), UniProt P17752)
Assay: Biochemical in vitro assay using fluorescence readout (TPH1 inhibition)
[1] = human TPH1, fluorescence readout
[2] = full length human TPH1, 40 μM L-tryptophan, 15° C., 60 minutes, fluorescence at 540 nm, mean if determined several times

human TPH1, sequence (P17752 whole entry): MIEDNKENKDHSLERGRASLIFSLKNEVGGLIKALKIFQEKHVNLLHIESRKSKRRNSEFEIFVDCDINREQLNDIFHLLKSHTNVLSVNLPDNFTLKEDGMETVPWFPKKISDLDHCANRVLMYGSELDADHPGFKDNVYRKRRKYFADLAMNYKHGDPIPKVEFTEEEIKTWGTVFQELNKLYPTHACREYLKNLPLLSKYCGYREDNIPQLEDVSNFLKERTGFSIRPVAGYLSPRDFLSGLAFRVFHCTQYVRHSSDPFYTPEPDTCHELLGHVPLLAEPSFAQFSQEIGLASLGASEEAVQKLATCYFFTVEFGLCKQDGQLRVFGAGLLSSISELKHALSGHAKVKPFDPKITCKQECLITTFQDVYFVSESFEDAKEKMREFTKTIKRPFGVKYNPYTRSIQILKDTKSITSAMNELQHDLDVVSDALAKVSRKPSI

Row | SMILES | IC50 [1] [nM] | IC50 [2] [nM]
1 | COC(=O)c1ccc(C2c3c(nc4sc(C)nn34)CCN2C(=O)COc2ccc(N3CCOCC3)nc2Cl)o1 (stereo not drawn) [Example 1.26.1, Methyl 5-(6-(2-((2-chloro-6-morpholinopyridin-3-yl)oxy)acetyl)-2-methyl-5,6,7,8-tetrahydro-[1,3,4]thiadiazolo [2′,3′:2,3]imidazo[4,5-c]pyridin-5-yl)furan-2-carboxylate] | 10 | 
2 | Cc1nc(C)c(C2c3c(nc4sc(C)nn34)CCN2C(=O)COc2ccc(N3CCOCC3)nc2Cl)o1 (stereo not drawn) [Example 1.66.1, 2-((2-chloro-6-morpholinopyridin-3-yl)oxy)-1-(5-(2,4-dimethyloxazol-5-yl)-2-methyl-7,8-dihydro-[1,3,4]thiadiazolo [2′,3′:2,3]imidazo[4,5-c]pyridin-6(5H)-yl)ethanone] | 13 | 
3 | Cc1ccc(OCC(=O)N2CCc3nc4sccn4c3C2c2cccnc2F)cc1 (stereo not drawn) [Example 6.2.3, 1-(5-(2-fluoropyridin-3-yl)-7,8-dihydrothiazolo[2′,3′:2,3]-imidazo[4,5-c]pyridin-6(5H)-yl)-2-(p-tolyloxy)ethanone] | 52 | 
4 | Cc1nn2c3c(nc2s1)CCN(C(=O)COc1ccc(C(=O)N(C)C)nc1Cl)C3c1cc(F)ccc1F (stereo not drawn) [Example 1.57.1, 6-chloro-5-(2-(5-(2,5-difluorophenyl)-2-methyl-7,8-dihydro-[1,3,4]thiadiazolo[2′,3′:2,3]imidazo[4,5-c]pyridine-6(5H)-yl)-2-oxoethoxy)-N,N-dimethylpicolinamide] | 30 | 
5 | Cc1nc(C)c(C2c3c(nc4sc(C)nn34)CCN2C(=O)COc2ccc(C(=O)N(C)C3CC3)nc2Cl)s1 (stereo not drawn) [Example 1.68.4, 6-chloro-N-cyclopropyl-5-(2-(5-(2,4-dimethylthiazol-5-yl)-2-methyl-7,8-dihydro-[1,3,4]thiadiazolo[2′,3′:2,3]imidazo[4,5-c]pyridin-6(5H)-yl)-2-oxoethoxy)-N-methylpicolinamide] | 19 | 
6 | O=C(COc1cccnc1Cl)N1CCc2nc3sccn3c2C1c1nc2ccccc2s1 (stereo not drawn) [Example 6.12.6, 1-(5-(benzo[d]thiazol-2-yl)-7,8-dihydrothiazolo-[2′,3′:2,3]imidazo[4,5-c]pyridin-6(5H)-yl)-2-((2-chloropyridin-3-yl)oxy)ethanone] | 101 | 
7 | CS(=O)(=O)Nc1ccc(OCC(=O)N2CCc3nc4sc(C(F)F)nn4c3C2c2ccc(Cl)cc2F)c(Cl)n1 (stereo not drawn) [Example 8.1.1, N-(6-chloro-5-(2-(5-(4-chloro-2-fluorophenyl)-2-(difluoromethyl)-7,8-dihydro-[1,3,4]thiadiazolo-[2′,3′:2,3]imidazo[4,5-c]pyridin-6(5H)-yl)-2-oxoethoxy)pyridin-2-yl)methanesulfonamide] | 19 | 
8 | Cc1nn2c3c(nc2s1)CCN(C(=O)COc1ccc(N2CC(F)(F)C2)cc1Cl)C3c1ccc(Cl)cc1F (stereo not drawn) [Example 1.4.29, 1-(5-(4-Chloro-2-fluorophenyl)-2-methyl-7,8-dihydro-[1,3,4]thiadiazolo[2′,3′:2,3]imidazo[4,5-c]pyridin-6(5H)-yl)-2-(2-chloro-4-(3,3-difluoroazetidin-1-yl)phe-noxy)ethanone] |  | 6
9 | Cc1nn2c3c(nc2s1)CCN(C(=O)COc1ccc(N2CCOCC2)nc1Cl)C3c1sc(-c2nnn[nH]2)cc1F (stereo not drawn) [Example 1.70.1, 2-((2-Chloro-6-morpholinopyridin-3-yl)oxy)-1-(5-(3-fluoro-5-(1H-tetrazol-5-yl)thiophen-2-yl)-2-methyl-7,8-dihydro-[1,3,4]thiadiazolo[2′,3′:2,3]imidazo-[4,5-c]pyridin-6(5H)-yl)ethanone] |  | 13
10 | Cc1nn2c3c(nc2s1)CCN(C(=O)COc1ccc(F)cc1Cl)C3c1ccc(C2CC2)cc1F (stereo not drawn) [Example 1.6.2, 2-(2-chloro-4-fluorophenoxy)-1-(5-(4-cyclopropyl-2-fluorophenyl)-2-methyl-7,8-dihydro-[1,3,4]thiadiazolo [2′,3′:2,3]imidazo[4,5-c]pyridin-6(5H)-yl)ethanone] | 10 | 
11 | Cn1nc(OCC(=O)N2CCc3nc4sccn4c3C2c2cccnc2F)c(C(F)(F)F)c1Cl (stereo not drawn) [Example 6.2.6, 2-((5-chloro-1-methyl-4-(trifluoromethyl)-1H-pyrazol-3-yl)oxy)-1-(5-(2-fluoropyridin-3-yl)-7,8-dihydrothiazolo[2′,3′:2,3]imidazo[4,5-c]pyridin-6(5H)-yl)ethanone] | 419 | 
12 | Cc1nn2c3c(nc2s1)CCN(C(=O)COc1ccc(NS(C)(=O)=O)nc1Cl)C3c1cnc(N(C)C)s1 (stereo not drawn) [Example 1.22.6, N-(6-Chloro-5-(2-(5-(2-(dimethylamino)thiazol-5-yl)-2-methyl-7,8-dihydro-[1,3,4]thia-diazolo[2′,3′:2,3]imidazo[4,5-c]pyridin-6(5H)-yl)-2-oxoethoxy)pyridin-2-yl)methane-sulfonamide] |  | 39
13 | CNC(=O)c1cc(F)c(C2c3c(nc4sc(C)nn34)CCN2C(=O)COc2ccc(NS(C)(=O)=O)nc2Cl)s1 (stereo not drawn) [Example 1.25.7, 5-(6-(2-((2-chloro-6-(methylsulfonamido)pyridin-3-yl)oxy)acetyl)-2-methyl-5,6,7,8-tetrahydro-[1,3,4]thiadiazolo [2′,3′:2,3]imidazo[4,5-c]pyridin-5-yl)-4-fluoro-N-methylthiophene-2-carboxamide] | 7 | 
14 | CCc1ncccc1OCC(=O)N1CCc2nc3sccn3c2C1c1cnn(-c2ccccc2)c1 (stereo not drawn) [Example 6.13.9, 2-((2-ethylpyridin-3-yl)oxy)-1-(5-(1-phenyl-1H-pyrazol-4-yl)-7,8-dihydrothiazolo[2′,3′:2,3]imidazo[4,5-c]pyridin-6(5H)-yl)ethanone] | 123 | 
15 | Cc1nn2c3c(nc2s1)CCN(C(=O)COc1ccc(C(=O)N(C)C)nc1Cl)C3c1ccc(C2CC2)cc1F (stereo not drawn) [Example 1.6.25, 6-chloro-5-(2-(5-(4-cyclopropyl-2-fluorophenyl)-2-methyl-7,8-dihydro-[1,3,4]thiadiazolo[2′,3′:2,3]imidazo[4,5-c]pyridin-6(5H)-yl)-2-oxoethoxy)-N,N-dimethylpicolinamide] | 4 | 
16 | Cc1nn2c3c(nc2s1)CCN(C(=O)COc1ccc(-c2ncco2)nc1Cl)C3c1ccc(Cl)cc1F (stereo not drawn) [Example 1.4.47, 1-(5-(4-chloro-2-fluorophenyl)-2-methyl-7,8-dihydro-[1,3,4]thiadiazolo[2′,3′:2,3]imidazo[4,5-c]pyridin-6(5H)-yl)-2-((2-chloro-6-(oxazol-2-yl)pyridin-3-yl)oxy)etha-none] | 10 | 
17 | CCOC(=O)c1ncc(C2c3c(nc4sc(C)nn34)CCN2C(=O)COc2ccc(N3CCOCC3)nc2Cl)s1 (stereo not drawn) [Example 1.30.1, Ethyl 5-(6-(2-((2-chloro-6-morpholinopyridin-3-yl)oxy)acetyl)-2-methyl-5,6,7,8-tetrahydro-[1,3,4]thiadiazolo [2′,3′:2,3]imidazo[4,5-c]pyridin-5-yl)thiazole-2-carboxylate] | 9 | 
18 | Cc1ccc(C2c3c(nc4sc(C)nn34)CCN2C(=O)COc2ccc(-c3ncco3)nc2Cl)c(F)c1 (stereo not drawn) [Example 1.53.1, 2-((2-chloro-6-(oxazol-2-yl)pyridin-3-yl)oxy)-1-(5-(2-fluoro-4-methylphenyl)-2-methyl-7,8-dihydro-[1,3,4]thiadiazolo[2′,3′:2,3]imidazo[4,5-c]pyridin-6(5H)-yl)ethanone] | 9 | 
